# Target: T1, LSD-1 enzyme (Homo sapiens (Human), UniProt O60341)
# Assay: not given
row,SMILES,IC50
1,"COCC1(CN[C@@H]2C[C@H]2c2ccccc2)CCN(C(=O)N2CCC(O)CC2)CC1 [Example 112, 1-{[4-(methoxymethyl)-4-({[(1R,2S)-2-phenylcyclopropyl]amino}methyl)piperidin-1-yl]carbonyl}piperidin-4-ol]",< 100 nM
2,"N#CC1CCN(C(=O)N2CC(CN[C@@H]3C[C@H]3c3ccccc3)C2)CC1 (relative stereo) [Example 12, 1-[(3-{[(trans-2-Phenylcyclopropyl)amino]methyl}azetidin-1-yl)carbonyl]piperidine-4-carbonitrile]",< 100 nM
3,"COCC1(CNC2CC2c2ccccc2OC)CCN(CC2(C(=O)O)CCC2)CC1 (stereo not drawn) [Example 66, 1-{[4-(methoxymethyl)-4-({[2-(2-methoxyphenyl)cyclopropyl]amino}methyl)piperidin-1-yl]methyl}cyclobutanecarboxylic acid]",< 100 nM
4,"COCC1(CN[C@@H]2C[C@H]2c2ccccc2)CCN(C(=O)C2(C#N)CC2)CC1 [Example 102, 1-{[4-(methoxymethyl)-4-({[(1R,2S)-2-phenylcyclopropyl]amino}methyl)piperidin-1-yl]carbonyl}cyclopropanecarbonitrile]",< 100 nM
5,"N#Cc1ccccc1OCC1(CN[C@@H]2C[C@H]2c2ccccc2)CCN(CC2(C(=O)O)CC2)CC1 [Example 79, 1-{[4-[(2-cyanophenoxy)methyl]-4-({[(1R,2S)-2-phenylcyclopropyl]amino}methyl)piperidin-1-yl]methyl}cyclopropanecarboxylic acid]",< 100 nM
6,"N#CCc1ccc(CC2(CN[C@@H]3C[C@H]3c3ccccc3)CCN(CC3(C(=O)O)CC3)CC2)cc1 [Example 53, 1-{[4-[4-(cyanomethyl)benzyl]-4-({[(1R,2S)-2-phenylcyclopropyl]amino}methyl)piperidin-1-yl]methyl}cyclopropanecarboxylic acid]",< 100 nM
7,"COCC1(CN[C@@H]2C[C@H]2c2ccccc2)CCN(C(=O)c2cnn(C)c2)CC1 [Example 105, (1R,2S)—N-({4-(methoxymethyl)-1-[(1-methyl-1H-pyrazol-4-yl)carbonyl]piperidin-4-yl}methyl)-2-phenylcyclopropanamine]",< 100 nM
8,"COCC1(CN[C@@H]2C[C@H]2c2ccccc2)CCN(C(=O)[C@@H]2CCCN2C)CC1 [Example 38, (1R,2S)—N-[(4-(methoxymethyl)-1-{[(2S)-1-methylpyrrolidin-2-yl]carbonyl}piperidin-4-yl)methyl]-2-phenylcyclopropanamine]",< 100 nM

# Target: T1, LSD-1 enzyme
# Assay: biochemical
# Experimental: LSD1 Histone Demethylase Biochemical Assay
# LANCE LSD1/KDM1A demethylase assay-10 μL of 1 nM LSD-1 enzyme (ENZO BML-SE544-0050) in the assay buffer (50 mM Tris, pH 7.5, 0.01% Tween-20, 25 mM NaCl, 5 mM DTT) were preincubated for 1 hour at 25° C. with 0.8 μL compound/DMSO dotted in black 384 well polystyrene plates. […] After stopping the reactions plates were incubated for 30 minutes and read on a PHERAstar FS plate reader (BMG Labtech).
row,SMILES,IC50
1,"COCC1(CN[C@@H]2C[C@H]2c2ccccc2)CCN(C(=O)N2CC(O)C2)CC1 [Example 111, 1-{[4-(methoxymethyl)-4-({[(1R,2S)-2-phenylcyclopropyl]amino}methyl)piperidin-1-yl]carbonyl}azetidin-3-ol]",< 100 nM

# Reference: patent US9670210B2, “Cyclopropylamines as LSD1 inhibitors” (Incyte Corporation, priority 2014, dated 2017)
